According to patent publication US11311543B2, “Compositions and methods for inhibiting PTPN22” (YALE UNIVERSITY, priority 2016, dated 2022):

How the values were obtained:
PTPN22 [1] = target: T1, PTPN22 (Homo sapiens, UniProt Q9Y2R2); settings: Vang et al., 2012; cited from earlier work
T1 construct: host or cells: T cells (not further specified)
T1 sequence (Q9Y2R2 1-807): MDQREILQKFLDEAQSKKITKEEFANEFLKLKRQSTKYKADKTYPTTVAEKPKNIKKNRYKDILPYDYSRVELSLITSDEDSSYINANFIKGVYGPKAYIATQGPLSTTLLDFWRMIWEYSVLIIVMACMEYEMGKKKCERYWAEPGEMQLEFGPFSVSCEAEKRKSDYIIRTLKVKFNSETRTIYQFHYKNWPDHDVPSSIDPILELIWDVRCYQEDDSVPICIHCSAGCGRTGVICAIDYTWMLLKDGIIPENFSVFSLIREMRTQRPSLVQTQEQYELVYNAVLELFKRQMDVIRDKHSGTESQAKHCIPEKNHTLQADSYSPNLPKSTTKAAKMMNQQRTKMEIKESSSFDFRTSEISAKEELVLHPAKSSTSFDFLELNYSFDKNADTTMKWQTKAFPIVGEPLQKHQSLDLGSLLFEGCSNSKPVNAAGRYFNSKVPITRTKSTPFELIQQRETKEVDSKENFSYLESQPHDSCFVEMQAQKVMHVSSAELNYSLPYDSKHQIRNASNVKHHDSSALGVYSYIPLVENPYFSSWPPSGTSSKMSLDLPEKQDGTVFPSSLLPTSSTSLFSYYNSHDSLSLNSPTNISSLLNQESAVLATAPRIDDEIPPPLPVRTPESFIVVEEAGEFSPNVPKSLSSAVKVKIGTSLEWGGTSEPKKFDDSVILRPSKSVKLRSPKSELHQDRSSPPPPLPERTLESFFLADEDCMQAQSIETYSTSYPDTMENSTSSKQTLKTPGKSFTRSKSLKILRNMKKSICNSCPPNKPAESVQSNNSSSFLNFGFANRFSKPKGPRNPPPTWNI

mature naive B cells = assay: Peripheral B cell tolerance checkpoint in NSG+thymus mouse carrying the 1858T PTPN22 allele; type: in vivo, NSG mouse engrafted with human fetal HSCs and thymic tissue; settings: LTV-1 0.75 mg twice daily for a month
Description: FIG. 41A depicts a schematic diagram depicting the LTV-1 PTPN22 inhibitor treatment strategy. A NSG+thymus mouse generated with CD34^+ HSCs and thymic graft carrying the 1858T PTPN22 allele was injected twice daily with 0.75 mg of PTPN22 inhibitor for four weeks. FIG. 41B depicts the frequencies of HEp-2 reactive mature naive B cells from NSG+thymus mice treated or not with the PTPN22 inhibitor were determined. […] For each B cell fraction, the frequency of reactive (filled area) and non-reactive (open area) clones is summarized in pie charts with the total number of clones tested indicated in the center. In summarized reactivity panels on the right, each symbol represents either a subject or a humanized mouse. Averages are shown with a bar. Statistically significant differences are indicated ****P≤0.0001, ***P≤0.001. FIG. 41C depicts the frequencies of polyreactive mature naive B cells from NSG+thymus mice treated or not with the PTPN22 inhibitor were determined. […] For each B cell fraction, the frequency of reactive (filled area) and non-reactive (open area) clones is summarized in pie charts with the total number of clones tested indicated in the center. In summarized reactivity panels on the right, each symbol represents either a subject or a humanized mouse. Averages are shown with a bar. Statistically significant differences are indicated ****P≤0.0001, ***P≤0.001. […]

PTPN22 [2] = assay: PTPN22 expression by western blot in shRNA-transduced RAMOS B cell line; type: cell-based; settings: human RAMOS B cell line, GFP+ shRNA+ vs GFP-
Description: FIG. 10A depicts flow cytometry analysis of Ramos B cells transduction efficiency. Ramos B cells were transduced with three different GFP-tagged shRNA PTPN22 expressing lentiviruses and probed for GFP expression. […] Percentage of knock-down is indicated. FIG. 10B depicts the frequencies of polyreactive new emigrant B cells from sorted GFP− fractions were determined. […] For each B-cell fraction, the frequency of reactive (filled area) and non-reactive (open area) clones is summarized in pie charts with the total number of clones tested indicated in the center. FIG. 10C depicts the frequencies of HEp-2 reactive new emigrant B cells from sorted GFP− fractions were determined. […] For each B-cell fraction, the frequency of reactive (filled area) and non-reactive (open area) clones is summarized in pie charts with the total number of clones tested indicated in the center. FIG. 10D depicts the frequencies of antinuclear new emigrant B cells are compared between GFP− and GFP+ shRNA+ new emigrant B cells. […]
Total cell lysates were separated by SDS page, transferred to PVDF membranes, probed with mouse anti-PTPN22 (Invitrogen) and detected by chemiluminescence (Amersham ECL Prime Western Blotting detection Reagent) using a GBox documentation system (Syngene). For quantification, blots were stripped with stripping buffer (Pierce) and reprobed with a mouse anti-β-Actin antibody (Sigma-Aldrich).

Compound	PTPN22 enzymatic activity in T cells in vitro (PTPN22 [1])	impaired peripheral B cell tolerance checkpoint (autoreactive mature naive B cells) (mature naive B cells)	inhibition of PTPN22 expression detected by western blot (PTPN22 [2])
Cc1ccccc1N1C(=O)/C(=C/c2ccc(OCc3cccc(C(=O)O)c3)cc2)C(=O)NC1=S [LTV-1]	can be inhibited	effectively restored	
shRNA #1: shRNA targeting human PTPN22, 5′-CTAGTGCTCTTGGTGTATATT-3′, delivered by GFP-tagged lentivirus			about 80%
